Experimental data from patent publication US9556205B2, “Fungicide N-[(trisubstitutedsilyl)methyl]-carboxamide derivatives” (BAYER INTELLECTUAL PROPERTY GMBH, priority 2010, dated 2017).

Assays:
[1] = system: Puccinia recondita; experiment: In vivo preventive test on Puccinia recondita (wheat), Example H; settings: 500 ppm, evaluated 7-9 days after inoculation
Method: (§1) Solvent: 49 parts by weight of N,N-dimethylacetamide Emulsifier: 1 part by weight of alkylaryl polyglycol ether To produce a suitable preparation of active compound, 1 part by weight of active compound is mixed with the stated amounts of solvent and emulsifier, and the concentrate is diluted with water to the desired concentration. To test for preventive activity, young plants are sprayed with the preparation of active compound at the stated rate of application. One day after this treatment, the plants are inoculated with an aqueous spore suspension of Puccinia recondita. […] Then the plants are placed in a greenhouse at a temperature of approximately 20° C. and a relative atmospheric humidity of approximately 80%.

[2] = log P by HPLC on reversed-phase column (C18), EEC Directive 79/831 Annex V.A8; type: physicochemical; settings: 40° C., 0.1% aqueous formic acid and acetonitrile, linear gradient 10% to 90% acetonitrile
Method: In table 1, the log P values were determined in accordance with EEC Directive 79/831 Annex V.A8 by HPLC (High Performance Liquid Chromatography) on a reversed-phase column (C18), using the method described below:
Temperature: 40° C.; Mobile phases: 0.1% aqueous formic acid and acetonitrile; linear gradient from 10% acetonitrile to 90% acetonitrile.
Calibration was carried out using unbranched alkan-2-ones (comprising 3 to 16 carbon atoms) with known log P values (determination of the log P values by the retention times using linear interpolation between two successive alkanones). lambda-max-values were determined using UV-spectra from 200 nm to 400 nm and the peak values of the chromatographic signals.

[3] = system: Pyrenophora teres; experiment: In vivo preventive test on Pyrenophora teres (barley), Example F; settings: for Efficacy: 500 ppm of active ingredient, evaluated 7-9 days after inoculation; for disease control: 500 ppm, comparison with prior-art compound
Method: as §1, with “N,N-dimethylformamide” for “N,N-dimethylacetamide”, “Pyrenophora teres.” for “Puccinia recondita.”

[4] = system: Alternaria solani; experiment: In vivo preventive test on Alternaria solani (tomato); settings: for Efficacy: 500 ppm of active ingredient, evaluated 7 days after inoculation; for disease control: 500 ppm, comparison with prior-art compound
Method: as §1, with “N,N-dimethylformamide” for “N,N-dimethylacetamide”, “Alkylarylpolyglycolether” for “alkylaryl polyglycol ether”, “Alternaria solani.” for “Puccinia recondita.”, “an incubation cabinet” for “a greenhouse”, “at” for “at a temperature of”, “96%.” for “approximately 80%.”

[5] = system: Aspergillus parasiticus; type: cell-based; settings: 7 days at 20° C., OD620nm
[6] = system: Aflatoxins production by Aspergillus parasiticus; type: cell-based
[7] = system: Leptosphaeria nodorum; experiment: In vivo preventive test on Leptosphaeria nodorum (wheat); settings: 500 ppm of active ingredient, evaluated 8 days after inoculation
Method: Solvent: 49 parts by weight of N,N-dimethylacetamide Emulsifier: 1 part by weight of alkylaryl polyglycol ether To produce a suitable preparation of active compound, 1 part by weight of active compound or the compound combination is mixed with the stated amounts of solvent and emulsifier, and the concentrate is diluted with water to the desired concentration. To test for protective activity, young plants are sprayed with a preparation of active compound or active compound combination at the stated rate of application. After the spray coating has dried on, the plants are sprayed with a spore suspension of Leptosphaeria nodorum. […] The plants are placed in a greenhouse at a temperature of approximately 15° C. and a relative atmospheric humidity of approximately 80%.

[8] = system: Botrytis cinerea; experiment: In vivo preventive test on Botrytis cinerea (beans); settings: 500 ppm of active ingredient, lesion size 2 days after inoculation
Method: Solvent: 24.5 parts by weight of acetone
• 24.5 parts by weight of N,N-dimethylacetamide Emulsifier: 1 part by weight of alkylaryl polyglycol ether
(§2) To produce a suitable preparation of active compound, 1 part by weight of active compound is mixed with the stated amounts of solvent and emulsifier, and the concentrate is diluted with water to the desired concentration.
To test for protective activity, young plants are sprayed with the preparation of active compound. After the spray coating has dried on, 2 small pieces of agar covered with growth of Botrytis cinerea are placed on each leaf. The inoculated plants are placed in a darkened chamber at 20° C. and a relative atmospheric humidity of 100%.
2 days after the inoculation, the size of the lesions on the leaves is evaluated. 0% means an efficacy which corresponds to that of the control, while an efficacy of 100% means that no disease is observed. Under these conditions, excellent (at least 95%) to total protection is observed at a dose of 500 ppm of active ingredient with the following compounds from table C: […]

[9] = system: Phakopsora pachyrhizi; experiment: In vivo protective test on Phakopsora pachyrhizi (soybean rust); settings: 250 ppm of active ingredient, evaluated 11 days after inoculation
Method: Solvent: 28.5 parts by weight of acetone
Emulsifier: 1.5 parts by weight of polyoxyethylene alkyl phenyl ether
as §2
To test for protective activity, young plants are sprayed with the preparation of active compound at the stated rate of application. One day after spraying, the plants are inoculated with an aqueous spore suspension of the causal agent of soybean rust (Phakopsora pachyrhizi). The plants are then placed in a greenhouse at approximately 20° C. and a relative atmospheric humidity of approximately 80%.
The test is evaluated 11 days after the inoculation. 0% means an efficacy which corresponds to that of the control, while an efficacy of 100% means that no disease is observed.
Under these conditions, good (at least 80%) to total protection is observed at a dose of 250 ppm of active ingredient with the following compounds from table G: […]

[10] = system: Septoria tritici; experiment: In vivo preventive test on Septoria tritici (wheat); settings: 500 ppm of active ingredient, evaluated 21 days after inoculation
Method: Solvent: 49 parts by weight of N,N-dimethylacetamide Emulsifier: 1 part by weight of alkylaryl polyglycol ether To produce a suitable preparation of active compound, 1 part by weight of active compound or active compound combination is mixed with the stated amounts of solvent and emulsifier, and the concentrate is diluted with water to the desired concentration. To test for preventive activity, young plants are sprayed with the preparation of active compound or active compound combination at the stated rate of application. After the spray coating has dried on, the plants are sprayed with a spore suspension of Septoria tritici. […] The plants are placed in a greenhouse at a temperature of approximately 15° C. and a relative atmospheric humidity of approximately 80%.

[11] = system: Venturia inaequalis; experiment: In vivo preventive test on Venturia inaequalis (apple scab); settings: 100 ppm of active ingredient, evaluated 10 days after inoculation
Method: Solvent: 24.5 parts by weight of acetone • 24.5 parts by weight of N,N-dimethylacetamide Emulsifier: 1 part by weight of alkylaryl polyglycol ether To produce a suitable preparation of active compound, 1 part by weight of active compound is mixed with the stated amounts of solvent and emulsifier, and the concentrate is diluted with water to the desired concentration. To test for protective activity, young plants are sprayed with the preparation of active compound at the stated rate of application. […] The plants are then placed in a greenhouse at approximately 21° C. and a relative atmospheric humidity of approximately 90%.

[12] = system: Puccinia recondita; experiment: In vivo test on Puccinia recondita (wheat brown rust), Example I; settings: wheat (Scipion variety), 500 ppm of active ingredient, grading 10 days after contamination

| Compound | disease control [1] | logP [2] | Efficacy [3] | disease control [3] | Efficacy [4] | disease control [4] | % Inhibition of fungal growth at 50 μM [5] | % Inhibition of Aflatoxin at 50 μM [6] | Efficacy [7] | Efficacy [8] | Efficacy [9] | Efficacy [10] | Efficacy [11] | protection [12] |
| --- | --- | --- | --- | --- | --- | --- | --- | --- | --- | --- | --- | --- | --- | --- |
| Cn1nc(C(F)F)c(C(=O)N(C[Si](C)(C)c2ccccc2)C2CCCCC2)c1F [Example 11] | 80% | 4.86 | 70% | 70% | 90% | 90% |  |  |  |  |  |  |  |  |
| Cn1nc(C(F)F)c(C(=O)N(C[Si](C)(C)c2ccc(Cl)cc2Cl)C2CC2)c1F [Example 38] |  | 4.78 | 100% |  | 94% |  | 100% | 100% | 100% | 95% | 85% | 100% | 100% |  |
| Cc1nn(C)c(F)c1C(=O)N(C[Si](C)(C)c1ccccc1Cl)C1CC1 [Example 19] |  | 3.60 | 100% |  | 100% |  |  |  | 100% | 100% |  | 100% | 99% |  |
| C[Si](C)(CN(C(=O)c1ccco1)C1CCCCC1)c1ccccc1 [N-cyclohexyl-N-{[dimethyl(phenyl)silyl]methyl}-2-furamide, reference compound] | 10% |  |  | 0% |  | 0% |  |  |  |  |  |  |  |  |
| Cn1nc(C(F)F)c(C(=O)N(C[Si](C)(C)c2cccc(Cl)c2)C2CC2)c1F [Example 31] |  | 4.18 | 100% |  | 100% |  | 100% | 100% | 100% | 95% | 100% | 100% | 100% |  |
| Cn1nc(C(F)F)c(C(=O)N(C[Si](C)(C)Cc2ccccc2)C2CC2)c1F [Example 55] |  | 4.03 | 100% |  | 100% |  | 99% | 100% | 100% | 100% |  | 90% | 100% |  |
| Cn1nc(C(F)F)c(C(=O)N(C[Si](C)(C)c2ccccc2Cl)C2CC2)c1F [Example 18] |  | 4.13 | 100% |  | 100% |  | 100% | 100% | 100% |  | 80% | 100% | 99% |  |
| CCc1nn(C)c(F)c1C(=O)N(C[Si](C)(C)c1ccc(Cl)cc1Cl)C1CC1 [Example 42] |  | 4.78 | 100% |  | 100% |  |  |  | 100% | 100% |  | 100% | 99% |  |
| Cc1nn(C)c(F)c1C(=O)N(C[Si](C)(C)c1cccc(Cl)c1)C1CC1 [Example 27] |  | 3.67 | 100% |  | 94% |  |  |  | 100% | 98% |  | 100% | 100% |  |
| CCc1nn(C)c(F)c1C(=O)N(C[Si](C)(C)c1ccccc1)C1CC1 [Example 7] |  | 3.64 |  |  |  |  |  |  |  |  |  |  |  | at least 70% |
| Cc1cc(C(=O)N(C[Si](C)(C)c2ccccc2)C2CCCCC2)c(C)o1 [Example 12] | 40% | 5.62 | 70% | 70% | 80% | 80% |  |  |  |  |  |  |  |  |
| CCc1nn(C)c(F)c1C(=O)N(C[Si](C)(C)c1cc(Cl)cc(Cl)c1)C1CC1 [Example 49] |  | 4.78 | 100% |  | 94% |  |  |  | 94% |  |  | 100% | 96% |  |
| Cn1cc(C(=O)N(C[Si](C)(C)c2ccc(Cl)cc2Cl)C2CC2)c(C(F)F)n1 [Example 41] |  | 4.41 | 100% |  | 100% |  |  |  | 95% | 98% |  | 100% | 100% |  |
| Cn1nc(C(F)F)c(C(=O)N(C[Si](C)(C)c2cc(Cl)cc(Cl)c2)C2CC2)c1F [Example 52] |  | 4.78 | 100% |  | 100% |  | 100% | 100% | 100% | 100% | 99% | 100% | 100% |  |
| Cc1nn(C)c(F)c1C(=O)N(C[Si](C)(C)c1ccc(Cl)cc1Cl)C1CC1 [Example 39] |  | 4.30 | 100% |  | 94% |  |  |  | 94% |  |  | 100% | 100% |  |
